pKi: −log10 of the molar value.
Columns and labels:
Carbonic anhydrase 2 = Carbonic anhydrase 2 (Homo sapiens, UniProt P00918)
Carbonic anhydrase 1 = Carbonic anhydrase 1 (Homo sapiens, UniProt P00915)
Carbonic anhydrase 4 = biological target: T1, Carbonic anhydrase 4 (Bos taurus, UniProt Q95323)
T1 sequence (Q95323 whole entry): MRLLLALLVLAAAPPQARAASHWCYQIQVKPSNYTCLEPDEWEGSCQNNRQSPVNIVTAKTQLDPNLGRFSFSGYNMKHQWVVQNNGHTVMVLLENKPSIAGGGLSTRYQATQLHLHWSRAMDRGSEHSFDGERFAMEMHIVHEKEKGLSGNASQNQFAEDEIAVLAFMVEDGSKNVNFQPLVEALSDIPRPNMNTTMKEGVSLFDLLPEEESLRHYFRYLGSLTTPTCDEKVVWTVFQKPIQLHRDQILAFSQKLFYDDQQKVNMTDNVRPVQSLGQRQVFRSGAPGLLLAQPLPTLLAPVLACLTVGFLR

Chain of Carbonic anhydrase 1 (P00915 whole entry): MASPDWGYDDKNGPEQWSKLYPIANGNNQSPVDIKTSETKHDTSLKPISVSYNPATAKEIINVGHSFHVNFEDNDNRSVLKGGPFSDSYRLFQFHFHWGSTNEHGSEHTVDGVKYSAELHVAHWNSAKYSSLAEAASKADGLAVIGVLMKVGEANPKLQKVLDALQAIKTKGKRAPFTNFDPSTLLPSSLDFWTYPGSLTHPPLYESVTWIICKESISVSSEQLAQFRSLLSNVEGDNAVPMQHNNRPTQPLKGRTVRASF

SMILES	pKi (Carbonic anhydrase 2)	pKi (Carbonic anhydrase 1)	pKi (Carbonic anhydrase 4)
O=S(=O)(NO)C(F)(F)C(F)(F)C(F)(F)C(F)(F)F	7.82	5.74	7.57
Cc1cc(C)c(S(=O)(=O)NO)c(C)c1	7.21	4.14	6.81
O=S(=O)(NO)c1ccc(Br)cc1	7.74	4.42	7.41
O=C(CN(Cc1ccccc1)S(=O)(=O)C(F)(F)C(F)(F)C(F)(F)C(F)(F)F)NO	7.07	6.98	7.00
CC(C(=O)NO)N(Cc1ccccc1Cl)S(=O)(=O)c1c(F)c(F)c(F)c(F)c1F (centres undefined)	< 6.70	< 6.70	< 6.70
CC(C)CC(NS(=O)(=O)c1c(F)c(F)c(F)c(F)c1F)C(=O)NO (centres undefined)	7.96	8.00	7.72
O=S(=O)(NO)C(F)(F)F	7.52	4.70	7.80
CC(C(=O)NO)N(Cc1ccccc1Cl)S(=O)(=O)C(F)(F)C(F)(F)C(F)(F)C(F)(F)F (centres undefined)	< 6.70	< 6.70	< 6.70
CC(C)C(NS(=O)(=O)c1c(F)c(F)c(F)c(F)c1F)C(=O)NO (centres undefined)	7.96	8.10	7.89
O=S(=O)(NO)C(Cl)(Cl)Cl	6.82	4.64	6.68
CC(C)CC(NS(=O)(=O)C(F)(F)C(F)(F)C(F)(F)C(F)(F)F)C(=O)NO (centres undefined)	7.74		7.52
Nc1ccc(S(=O)(=O)NO)cc1	7.43	4.21	7.26
O=[N+]([O-])c1ccc(S(=O)(=O)NO)cc1Cl	8.40	4.77	7.92
COc1ccc(S(=O)(=O)NCC(=O)NO)cc1	7.49	7.52	7.54
COc1ccc(S(=O)(=O)N(Cc2ccccc2Cl)C(C)C(=O)NO)cc1 (centres undefined)	< 6.70	< 6.70	< 6.70
CC(C)C(NS(=O)(=O)C(F)(F)C(F)(F)C(F)(F)C(F)(F)F)C(=O)NO (centres undefined)	7.82	7.54	7.70
CC(C(=O)NO)N(Cc1ccccc1)S(=O)(=O)c1c(F)c(F)c(F)c(F)c1F (centres undefined)	7.42	7.08	7.37
O=S(=O)(NO)c1ccccc1	7.59	4.74	7.13
CC(C(=O)NO)N(Cc1ccccc1[N+](=O)[O-])S(=O)(=O)c1c(F)c(F)c(F)c(F)c1F (centres undefined)	6.80	< 6.70	< 6.70
COc1ccc(S(=O)(=O)N(Cc2ccccc2[N+](=O)[O-])C(C)C(=O)NO)cc1 (centres undefined)	< 6.70	< 6.70	< 6.70
CC(NS(=O)(=O)c1c(F)c(F)c(F)c(F)c1F)C(=O)NO (centres undefined)	8.10	8.15	8.00

SMILES	pKi (Carbonic anhydrase 2)	pKi (Carbonic anhydrase 1)	pKi (Carbonic anhydrase 4)
COc1ccc(S(=O)(=O)NC(CC(C)C)C(=O)NO)cc1 (centres undefined)	8.30	7.30	7.41
O=[N+]([O-])c1cccc(S(=O)(=O)NO)c1	8.30	4.77	7.62
O=[N+]([O-])c1ccccc1S(=O)(=O)NO	8.30	4.82	7.89
CC(=O)Nc1ccc(S(=O)(=O)NO)cc1	7.54	4.40	7.40
COc1ccc(S(=O)(=O)NO)cc1	7.29	4.17	6.96
O=C(CNS(=O)(=O)c1c(F)c(F)c(F)c(F)c1F)NO	8.10	8.15	8.00
O=S(=O)(NO)c1ccc(Cl)cc1	7.68	4.57	6.92
COc1ccc(S(=O)(=O)N(Cc2ccccc2)C(C(=O)NO)C(C)C)cc1 (centres undefined)	< 6.70	< 6.70	6.73
CN(C)S(=O)(=O)NO	7.40	4.92	6.54
O=C(CN(Cc1ccc([N+](=O)[O-])cc1)S(=O)(=O)c1c(F)c(F)c(F)c(F)c1F)NO	6.97	6.82	6.89
COc1ccc(S(=O)(=O)N(Cc2ccc([N+](=O)[O-])cc2)C(C)C(=O)NO)cc1 (centres undefined)	< 6.70	< 6.70	< 6.70
CC(C(=O)NO)N(Cc1ccc([N+](=O)[O-])cc1)S(=O)(=O)C(F)(F)C(F)(F)C(F)(F)C(F)(F)F (centres undefined)	< 6.70	< 6.70	< 6.70
Cc1ccc(S(=O)(=O)NO)cc1	7.15	4.29	6.90
CC(NS(=O)(=O)C(F)(F)C(F)(F)C(F)(F)C(F)(F)F)C(=O)NO (centres undefined)	7.80	7.68	7.77
O=C(CNS(=O)(=O)C(F)(F)C(F)(F)C(F)(F)C(F)(F)F)NO	7.82	7.74	7.80
CC(C(=O)NO)N(Cc1ccccc1)S(=O)(=O)C(F)(F)C(F)(F)C(F)(F)C(F)(F)F (centres undefined)	7.04	6.92	6.97
COc1ccc(S(=O)(=O)N(CC(=O)NO)Cc2ccccc2[N+](=O)[O-])cc1	6.77	< 6.70	6.85
CC(C)CC(C(=O)NO)N(Cc1ccccc1)S(=O)(=O)C(F)(F)C(F)(F)C(F)(F)C(F)(F)F (centres undefined)	6.94	6.74	6.86
COc1ccc(S(=O)(=O)NO)cc1N	7.36	4.39	6.87
O=S(=O)(NO)c1ccc(F)cc1	7.72	4.82	7.05
CC(C(=O)NO)N(Cc1ccc([N+](=O)[O-])cc1)S(=O)(=O)c1c(F)c(F)c(F)c(F)c1F (centres undefined)	< 6.70	< 6.70	< 6.70

SMILES	pKi (Carbonic anhydrase 2)	pKi (Carbonic anhydrase 1)	pKi (Carbonic anhydrase 4)
COc1ccc(S(=O)(=O)NC(C(=O)NO)C(C)C)cc1 (centres undefined)	7.41	7.48	7.42
O=C(CN(Cc1ccccc1)S(=O)(=O)c1c(F)c(F)c(F)c(F)c1F)NO	7.44	7.05	7.38
O=S(=O)(NO)c1ccc(I)cc1	7.89	4.82	7.35
O=C(CN(Cc1ccccc1[N+](=O)[O-])S(=O)(=O)c1c(F)c(F)c(F)c(F)c1F)NO	7.13	6.90	7.31
O=S(=O)(NO)C(F)(F)C(F)(F)C(F)(F)C(F)(F)C(F)(F)C(F)(F)C(F)(F)C(F)(F)F	8.05	5.80	7.68
COc1ccc(S(=O)(=O)NC(C)C(=O)NO)cc1 (centres undefined)	7.46	7.49	7.52
O=C(O)c1ccccc1S(=O)(=O)NO	9.05	4.60	7.92
CC(C(=O)NO)N(Cc1ccccc1[N+](=O)[O-])S(=O)(=O)C(F)(F)C(F)(F)C(F)(F)C(F)(F)F (centres undefined)	< 6.70	< 6.70	< 6.70
COc1ccc(S(=O)(=O)N(Cc2ccccc2)C(C)C(=O)NO)cc1 (centres undefined)	6.92	6.71	6.87
COc1ccc(S(=O)(=O)N(Cc2ccccc2)C(CC(C)C)C(=O)NO)cc1 (centres undefined)	< 6.70	< 6.70	6.72
CC(C)C(C(=O)NO)N(Cc1ccccc1)S(=O)(=O)c1c(F)c(F)c(F)c(F)c1F (centres undefined)	7.35	7.06	7.32
O=S(=O)(Cc1ccccc1)NO	6.72	4.72	6.34
O=S(=O)(NO)c1cccc(C(F)(F)F)c1	8.96	4.48	7.80
CS(=O)(=O)NO	8.33		7.25
O=[N+]([O-])c1ccc(S(=O)(=O)NO)cc1	8.05	4.24	7.15
O=S(=O)(NO)c1c(F)c(F)c(F)c(F)c1F	9.10	4.52	7.89
CC(C)C(C(=O)NO)N(Cc1ccccc1)S(=O)(=O)C(F)(F)C(F)(F)C(F)(F)C(F)(F)F (centres undefined)	6.97	6.85	6.91
O=C(CN(Cc1ccc([N+](=O)[O-])cc1)S(=O)(=O)C(F)(F)C(F)(F)C(F)(F)C(F)(F)F)NO	6.93	< 6.70	6.87
COc1ccc(S(=O)(=O)N(CC(=O)NO)Cc2ccccc2)cc1	6.92	< 6.70	6.84
CC(C)CC(C(=O)NO)N(Cc1ccccc1)S(=O)(=O)c1c(F)c(F)c(F)c(F)c1F (centres undefined)	7.25	7.00	7.12

Source: ChEMBL document CHEMBL1133677, “Carbonic anhydrase and matrix metalloproteinase inhibitors: sulfonylated amino acid hydroxamates with MMP inhibitory properties act as efficient inhibitors of CA isozymes I, II, and IV, and N-hydroxysulfonamides inhibit both these zinc enzymes” (J Med Chem, 2000)
